Reference: US12428648B2, “Compositions comprising peptides that block transmission of orthotospoviruses” (priority 2019, dated 2025)
No end group written: not given here.

What was measured:
[1] = Dissolution of the synthesized peptides; type: physicochemical; settings: molecular biology grade water; 25% acetic acid for A229
αvβ3 = αvβ3 (Homo sapiens, UniProt P05106+P06756); settings: Hersel et al., 2003; cited from earlier work
α5β1 = α5β1 (Homo sapiens, UniProt P05556+P08648); settings: Hersel et al., 2003; cited from earlier work
Sequence of α5β1 (P08648 42-1049): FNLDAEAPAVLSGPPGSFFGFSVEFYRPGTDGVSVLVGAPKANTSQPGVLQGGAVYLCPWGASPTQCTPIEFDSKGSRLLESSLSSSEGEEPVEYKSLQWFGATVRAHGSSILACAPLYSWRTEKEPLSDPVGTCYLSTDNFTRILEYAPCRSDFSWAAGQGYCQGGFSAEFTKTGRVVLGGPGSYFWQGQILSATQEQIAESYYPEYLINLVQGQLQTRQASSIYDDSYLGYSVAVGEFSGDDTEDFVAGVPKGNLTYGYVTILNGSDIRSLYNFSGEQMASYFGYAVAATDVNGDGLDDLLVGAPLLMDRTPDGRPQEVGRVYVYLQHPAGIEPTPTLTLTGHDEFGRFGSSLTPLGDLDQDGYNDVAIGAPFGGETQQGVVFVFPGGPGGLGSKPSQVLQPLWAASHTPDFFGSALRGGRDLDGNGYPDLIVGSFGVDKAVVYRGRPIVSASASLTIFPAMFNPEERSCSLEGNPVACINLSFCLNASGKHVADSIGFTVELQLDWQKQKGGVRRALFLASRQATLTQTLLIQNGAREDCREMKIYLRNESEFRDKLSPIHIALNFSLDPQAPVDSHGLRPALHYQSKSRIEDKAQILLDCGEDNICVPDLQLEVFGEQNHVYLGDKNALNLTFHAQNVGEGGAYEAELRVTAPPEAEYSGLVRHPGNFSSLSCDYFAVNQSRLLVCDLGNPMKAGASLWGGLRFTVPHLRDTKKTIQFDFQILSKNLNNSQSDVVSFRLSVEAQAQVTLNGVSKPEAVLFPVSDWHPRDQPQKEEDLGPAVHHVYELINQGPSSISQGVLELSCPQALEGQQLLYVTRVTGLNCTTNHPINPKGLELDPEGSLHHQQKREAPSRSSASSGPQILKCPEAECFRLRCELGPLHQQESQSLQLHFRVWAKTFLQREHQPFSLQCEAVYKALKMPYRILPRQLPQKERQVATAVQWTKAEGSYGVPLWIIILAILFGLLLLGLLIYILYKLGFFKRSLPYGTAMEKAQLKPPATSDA
Sequence of α5β1 (P05556 21-798): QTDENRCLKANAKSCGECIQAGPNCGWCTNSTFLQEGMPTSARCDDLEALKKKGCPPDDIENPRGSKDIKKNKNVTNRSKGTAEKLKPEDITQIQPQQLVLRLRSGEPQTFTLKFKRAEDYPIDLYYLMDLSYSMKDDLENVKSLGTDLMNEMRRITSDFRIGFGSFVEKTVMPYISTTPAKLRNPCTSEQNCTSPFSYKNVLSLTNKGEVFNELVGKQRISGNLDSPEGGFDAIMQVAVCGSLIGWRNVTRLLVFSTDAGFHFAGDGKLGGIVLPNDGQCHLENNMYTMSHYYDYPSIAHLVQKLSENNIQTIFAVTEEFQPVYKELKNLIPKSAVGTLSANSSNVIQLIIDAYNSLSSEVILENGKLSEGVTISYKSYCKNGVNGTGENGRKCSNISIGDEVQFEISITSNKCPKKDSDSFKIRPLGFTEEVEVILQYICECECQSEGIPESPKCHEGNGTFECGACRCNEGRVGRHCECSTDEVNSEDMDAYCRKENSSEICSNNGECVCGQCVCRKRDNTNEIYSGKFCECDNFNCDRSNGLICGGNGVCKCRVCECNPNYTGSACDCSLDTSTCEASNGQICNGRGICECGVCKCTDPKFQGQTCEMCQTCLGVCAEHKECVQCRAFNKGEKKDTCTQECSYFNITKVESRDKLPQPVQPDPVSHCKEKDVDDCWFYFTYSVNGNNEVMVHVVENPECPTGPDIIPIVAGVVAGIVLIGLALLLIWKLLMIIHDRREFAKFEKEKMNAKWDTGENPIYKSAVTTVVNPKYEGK

Sequence of αvβ3 (P06756 31-1048): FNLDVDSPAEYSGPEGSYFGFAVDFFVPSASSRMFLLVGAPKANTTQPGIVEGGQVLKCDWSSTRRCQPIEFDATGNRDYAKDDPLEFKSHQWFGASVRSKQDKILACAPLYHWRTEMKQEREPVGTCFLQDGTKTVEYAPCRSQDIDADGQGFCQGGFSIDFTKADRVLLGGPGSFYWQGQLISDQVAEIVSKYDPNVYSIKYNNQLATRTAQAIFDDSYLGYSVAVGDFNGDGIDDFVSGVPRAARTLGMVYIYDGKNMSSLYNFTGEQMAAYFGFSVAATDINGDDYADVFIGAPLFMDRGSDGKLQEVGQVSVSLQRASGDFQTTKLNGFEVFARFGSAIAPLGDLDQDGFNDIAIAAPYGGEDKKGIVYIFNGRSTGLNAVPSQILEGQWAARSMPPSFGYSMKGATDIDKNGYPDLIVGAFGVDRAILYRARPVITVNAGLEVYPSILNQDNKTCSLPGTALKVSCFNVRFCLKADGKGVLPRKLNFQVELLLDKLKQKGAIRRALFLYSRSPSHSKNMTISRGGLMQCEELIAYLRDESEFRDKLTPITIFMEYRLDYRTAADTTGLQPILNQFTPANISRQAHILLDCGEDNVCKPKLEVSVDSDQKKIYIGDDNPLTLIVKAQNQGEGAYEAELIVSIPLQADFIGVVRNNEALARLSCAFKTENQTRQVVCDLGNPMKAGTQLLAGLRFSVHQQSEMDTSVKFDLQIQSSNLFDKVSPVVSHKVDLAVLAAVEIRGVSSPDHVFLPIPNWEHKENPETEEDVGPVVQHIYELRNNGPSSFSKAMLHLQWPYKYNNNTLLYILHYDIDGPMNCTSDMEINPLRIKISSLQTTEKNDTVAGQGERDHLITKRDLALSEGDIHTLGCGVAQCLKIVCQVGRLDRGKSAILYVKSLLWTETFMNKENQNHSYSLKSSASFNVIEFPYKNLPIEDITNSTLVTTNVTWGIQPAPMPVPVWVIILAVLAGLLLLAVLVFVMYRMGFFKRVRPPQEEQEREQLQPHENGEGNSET
Sequence of αvβ3 (P05106 27-788): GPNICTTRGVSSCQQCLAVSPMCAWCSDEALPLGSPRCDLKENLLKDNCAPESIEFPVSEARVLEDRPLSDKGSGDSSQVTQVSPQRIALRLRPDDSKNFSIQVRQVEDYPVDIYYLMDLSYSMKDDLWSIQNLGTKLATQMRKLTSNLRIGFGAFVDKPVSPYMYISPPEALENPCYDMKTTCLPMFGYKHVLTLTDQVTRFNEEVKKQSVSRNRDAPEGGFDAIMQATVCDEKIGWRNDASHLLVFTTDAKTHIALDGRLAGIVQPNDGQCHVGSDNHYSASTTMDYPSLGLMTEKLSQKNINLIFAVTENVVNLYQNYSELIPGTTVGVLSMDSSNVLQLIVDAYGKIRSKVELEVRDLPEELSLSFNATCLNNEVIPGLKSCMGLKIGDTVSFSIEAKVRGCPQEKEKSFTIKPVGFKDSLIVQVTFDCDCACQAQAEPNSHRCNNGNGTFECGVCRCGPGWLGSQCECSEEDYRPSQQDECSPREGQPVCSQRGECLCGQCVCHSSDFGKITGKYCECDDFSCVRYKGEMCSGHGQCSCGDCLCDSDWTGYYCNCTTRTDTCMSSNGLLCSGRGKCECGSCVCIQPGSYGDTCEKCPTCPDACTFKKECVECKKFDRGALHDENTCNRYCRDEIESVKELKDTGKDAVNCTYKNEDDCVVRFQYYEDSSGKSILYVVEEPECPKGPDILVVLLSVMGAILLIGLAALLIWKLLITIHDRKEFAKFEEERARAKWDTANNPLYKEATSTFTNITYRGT

Substance | solubility of the peptide, in words [1] | also measured
NASIAAAHEVSQE [AAA] | dissolved in molecular biology grade water | –
NASIAADHEVSQE [AAD] | insoluble in H2O | –
NASIRAAHEVSQE [RAA] | dissolved in molecular biology grade water | –
NASIAGAHEVSQE [AGA] | dissolved in molecular biology grade water | –
RLTGECNITKVSLTN [N229] | dissolved in molecular biology grade water | –
GPenGRGDSPCA | – | integrin selectivity, in words (αvβ3): selective for αvβ3
NASIRGAHEVSQE [RGA] | dissolved in molecular biology grade water | –
RGDSPASSKP | – | integrin binding preference, in words (α5β1): bind preferentially to α5β1
RLTGECAITKVSLTN [A229] | did not dissolve in either water or 25% acetic acid | –
NASIRADHEVSQE [RAD] | insoluble in H2O | –
GRGDSP | – | integrin binding preference, in words (α5β1): bind preferentially to α5β1
NASIRGDHEVSQE [RGD] | dissolved in molecular biology grade water | –
NASIAGDHEVSQE [AGD] | dissolved in molecular biology grade water | –
